# Source: ChEMBL document CHEMBL1275411, “Efficacy of SPK-843, a novel polyene antifungal, in comparison with amphotericin B, liposomal amphotericin B, and micafungin against murine pulmonary aspergillosis” (Antimicrob Agents Chemother, 2008)
# Active and inactive are the calls of the source. The calls are words filed in the database; no cut-off is given here. *1 amine or outer side, *2 acyl side, *3 side chain or, on linkers, in order; H or OH if unused. Where a SMILES comes first, the peptide text is derived from it. Bridges are numbered along the chain shown (N, C = ends). [ ]: non-standard residue; d: D form. The star is where a group is joined. hTyr(3S-OH,4S-OH,3'-OSO3H) = N[C@H](C(=O)O)[C@H](O)[C@@H](O)c1ccc(O)c(OS(=O)(=O)O)c1; Orn(4R-OH,5R-OH) = O=C([C@H](C[C@@H](O)[C@@H](O)N[*:3])N[*:1])[*:2]; Pro(3S-OH,4S-Me) = C[C@H]1CN[C@H](C(=O)O)[C@H]1O; X1 = CCCCCOc1ccc(-c2cc(-c3ccc(C(=O)*)cc3)no2)cc1; Gln(3R-OH) = NC(=O)C[C@@H](O)[C@H](N)C(=O)O; Hyp = O=C(O)[C@@H]1C[C@@H](O)CN1
# How the values were obtained:
# Aspergillus niger [1] = assay: Antimicrobial activity against Aspergillus niger TIMM 2814 by broth microdilution method; format: functional
# Mus musculus [2] = assay: Toxicity in Aspergillosis infected DBA/2N mouse assessed as kidney tubular cell necrosis and cast formation at 1 mg/kg, iv qd after 5 days; format: organism-based; set-up: dose 1 mg/kg, route intravenous; settings: in vivo, 120 h
# Aspergillus flavus [3] = assay: Antimicrobial activity against Aspergillus flavus TIMM 0057 by broth microdilution method; format: functional
# Aspergillus fumigatus [4] = assay: Antimicrobial activity against Aspergillus fumigatus MF-13 by broth microdilution method; format: functional
# Mus musculus [5] = assay: Toxicity in Aspergillosis infected DBA/2N mouse assessed as histopathological lesions in kidney at 4 mg/kg, iv qd after 5 days; format: organism-based; set-up: dose 4 mg/kg, route intravenous; settings: in vivo, 120 h
# Aspergillus fumigatus [6] = assay: Antimicrobial activity against Aspergillus fumigatus conidia infected in DBA/2N mouse assessed as increased survival rate at 2 to 4 mg/kg, iv qd for 5 days; format: functional, organism-based
# Mus musculus [7] = assay: Toxicity in Aspergillosis infected DBA/2N mouse assessed as histopathological lesions in kidney at 1 mg/kg, iv qd after 5 days; format: organism-based; set-up: dose 1 mg/kg, route intravenous; settings: in vivo, 120 h
# Aspergillus fumigatus [8] = assay: Antimicrobial activity against Aspergillus fumigatus conidia infected in DBA/2N mouse assessed as increased survival rate at =>[…] mg/kg, iv qd for 5 days; format: functional, organism-based
# Aspergillus flavus [9] = assay: Antimicrobial activity against Aspergillus flavus infected in DBA/2N mouse at >1 mg/kg, iv qd for 5 days relative to amphotericin B; format: functional, organism-based
# Aspergillus [10] = assay: Antimicrobial activity against Aspergillus infected in DBA/2N mouse assessed as increased survival rate at >1 mg/kg, iv qd for 5 days relative to amphotericin B; format: functional, organism-based
# Aspergillus flavus [11] = assay: Antimicrobial activity against Aspergillus flavus conidia infected in DBA/2N mouse assessed as increased survival rate at =>1 mg/kg, iv qd for 5 days; format: functional, organism-based
# Aspergillus fumigatus [12] = assay: Antimicrobial activity against Aspergillus fumigatus conidia infected in DBA/2N mouse assessed as increased survival rate at 0.25 to 1 mg/kg, iv qd for 5 days; format: functional, organism-based
# Aspergillus fumigatus [13] = assay: Antimicrobial activity against Aspergillus fumigatus infected in DBA/2N mouse at >1 mg/kg, iv qd for 5 days relative to amphotericin B; format: functional, organism-based
# Aspergillus flavus [14] = assay: Antimicrobial activity against Aspergillus flavus conidia infected in iv dosed DBA/2N mouse assessed as increased survival rate measured for 5 days; format: functional, organism-based
# Mus musculus [15] = assay: Toxicity in DBA/2N mouse infected with Aspergillus at >1.0 mg/kg, iv qd for 5 days relative to amphotericin B; format: organism-based; settings: in vivo, 120 h
# Aspergillus niger [16] = assay: Antimicrobial activity against Aspergillus niger conidia infected in DBA/2N mouse assessed as increased survival rate at =>0.25 mg/kg, iv qd for 5 days; format: functional, organism-based
# Aspergillus niger [17] = assay: Antimicrobial activity against Aspergillus niger infected in DBA/2N mouse at >1 mg/kg, iv qd for 5 days relative to amphotericin B; format: functional, organism-based
# Aspergillus niger [18] = assay: Antimicrobial activity against Aspergillus niger conidia infected in DBA/2N mouse assessed as increased survival rate at 2 mg/kg, iv qd for 5 days relative to amphotericin B/L-amphotericin B; format: functional, organism-based; set-up: dose 2 mg/kg
# Aspergillus [19] = assay: Antimicrobial activity against Aspergillus infected in DBA/2N mouse at 1 mg/kg, iv qd for 5 days; format: functional, organism-based; set-up: dose 1 mg/kg
# Aspergillus niger [20] = assay: Antimicrobial activity against Aspergillus niger conidia infected in iv dosed DBA/2N mouse assessed as increased survival rate measured for 5 days; format: functional, organism-based
# Aspergillus flavus [21] = assay: Antimicrobial activity against Aspergillus flavus conidia infected in DBA/2N mouse assessed as increased survival rate at 4 mg/kg, iv qd for 5 days relative to amphotericin B/L-amphotericin B; format: functional, organism-based; set-up: dose 4 mg/kg
# Mus musculus [22] = assay: Toxicity in DBA/2N mouse infected with Aspergillus at =<1.0 mg/kg, iv qd after 5 days; format: organism-based; settings: in vivo, 120 h
smiles,measurement,setting,value
C[C@@H]1[C@H](O)[C@@H](C)/C=C/C=C/C=C/C=C/C=C/C=C/C=C/[C@H](O[C@@H]2O[C@H](C)[C@@H](O)[C@H](N)[C@@H]2O)C[C@@H]2O[C@](O)(C[C@@H](O)C[C@@H](O)[C@H](O)CC[C@@H](O)C[C@@H](O)CC(=O)O[C@H]1C)C[C@H](O)[C@H]2C(=O)O [AMPHOTERICIN B],MIC,Aspergillus niger [1],0.25 µg/mL
same,Activity,Mus musculus [2],Toxic
same,MIC,Aspergillus flavus [3],0.5 µg/mL
same,MIC,Aspergillus fumigatus [4],0.25 µg/mL
same,Activity,Mus musculus [5],Non-toxic
same,Activity,Aspergillus fumigatus [6],Active
same,Activity,Mus musculus [7],Non-toxic
same,Activity,Aspergillus fumigatus [8],Active
"CCCCCOc1ccc(-c2cc(-c3ccc(C(=O)N[C@H]4C[C@@H](O)[C@@H](O)NC(=O)[C@@H]5[C@@H](O)[C@@H](C)CN5C(=O)[C@H]([C@H](O)CC(N)=O)NC(=O)[C@H]([C@H](O)[C@@H](O)c5ccc(O)c(OS(=O)(=O)O)c5)NC(=O)[C@@H]5C[C@@H](O)CN5C(=O)[C@H]([C@@H](C)O)NC4=O)cc3)no2)cc1 [MICAFUNGIN] (X1-[Orn(4R-OH,5R-OH)]T[Hyp][hTyr(3S-OH,4S-OH,3'-OSO3H)][Gln(3R-OH)][Pro(3S-OH,4S-Me)]; lactam 1-C)",MIC,Aspergillus fumigatus [4],0.0156 µg/mL
CNc1ccc(C(=O)CC(O)CC[C@H](C)C2OC(=O)C[C@H](O)CC(=O)C[C@H](O)C[C@H](O)C[C@H](O)C[C@H](O)C[C@]3(O)C[C@H](O)[C@@H](C(=O)NCCN(C)C)[C@H](C[C@@H](O[C@@H]4O[C@H](C)[C@@H](O)[C@H](NC(=O)CN(C)C)[C@@H]4O)/C=C/C=C/C=C/C=C/C=C/C=C/C=C/C2C)O3)cc1.O=C1O[C@H]([C@@H](O)CO)C(O)=C1O.O=C1O[C@H]([C@@H](O)CO)C(O)=C1O (some centres not stated),Activity,Aspergillus flavus [9],Active
same,Activity,Aspergillus [10],Active
same,Activity,Aspergillus flavus [11],Active
same,MIC,Aspergillus niger [1],0.0625 µg/mL
same,Activity,Aspergillus fumigatus [12],Active
same,Activity,Aspergillus fumigatus [13],Active
same,MIC,Aspergillus flavus [3],0.25 µg/mL
same,Activity,Aspergillus flavus [14],Dose-dependent effect
same,Activity,Mus musculus [15],Non-toxic
same,MIC,Aspergillus fumigatus [4],0.5 µg/mL
same,Activity,Aspergillus niger [16],Active
same,Activity,Aspergillus niger [17],Active
same,Activity,Aspergillus niger [18],Active
same,Activity,Aspergillus [19],inactive
same,Activity,Aspergillus niger [20],Dose-dependent effect
same,Activity,Aspergillus flavus [21],Active
same,Activity,Aspergillus fumigatus [8],Active
same,Activity,Mus musculus [22],Non-toxic
